The supplement of paper PMC10307832

Compound: C=CCn1c(=O)c2cnc(Nc3ccc(N4CCN(C)CC4)cc3)nc2n1-c1cccc(C(C)(C)O)n1 [Adavosertib] + COc1cc2c(Oc3ccc(NC(=O)C4(C(=O)Nc5ccc(F)cc5)CC4)cc3F)ccnc2cc1OCCCN1CCOCC1 [Foretinib] (partner 0.25 µM)
Assay: relative viability (nuclei count vs DMSO), 5 days (fraction); higher = more cells survive
Settings: first compound 0.1 µM
Outline: (§1)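 Relative viability is defined as nuclei in treated wells over nuclei in vehicle wells. Duplicate plates were run and medians reported. Lung cancer cell lines in 1536-well plates were dosed by pin tool one day after seeding, with one drug or with a fixed anchor-drug dose plus five library-drug doses (not always all listed) in √10 steps, and nuclei were counted after 5 days.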

Cell Line | relative viability
NCI-H2342 | 1.19
SK-LU-1 | 0.563
SK-MES-1 | 0.866
SW 900 | 0.853
SW 1573 | 1.13
UMC-11 | 1.06

Same assay, conditions: first compound 0.3162 µM

Cell Line | relative viability
201T | 1.23
A549 | 0.838
A-427 | 0.851
ABC-1 | 1.03
BEN | 0.695
CAL-12T | 1.09
COR-L23 | 0.644
COR-L 105 | 0.925
Calu-6 | 0.311
ChaGo-K-1 | 1.02
EBC-1 | 0.0875
EKVX | 0.748
EPLC-272H | 0.247
H3255 | 1.04
HARA | 0.335
HCC-15 | 1.25
HCC-78 | 0.628
HCC-366 | 1.04
HCC-827 | 0.929
HOP-62 | 1.34
IA-LM | 1.37
LC-2-ad | 0.889

Cell Line | relative viability
LCLC-97TM1 | 0.881
LCLC-103H | 0.517
LK-2 | 1.14
LOU-NH91 | 0.88
LU99A | 0.579
NCI-H520 | 0.703
NCI-H661 | 0.839
NCI-H1299 | 0.437
NCI-H1563 | 0.931
NCI-H1623 | 0.933
NCI-H1650 | 0.797
NCI-H1703 | 0.203
NCI-H2009 | 1.2
NCI-H2023 | 0.568
NCI-H2228 | 0.472
NCI-H2342 | 1.04
SK-LU-1 | 0.311
SK-MES-1 | 0.731
SW 900 | 0.907
SW 1573 | 1.2
UMC-11 | 1.08

Compound: C=CCn1c(=O)c2cnc(Nc3ccc(N4CCN(C)CC4)cc3)nc2n1-c1cccc(C(C)(C)O)n1 [Adavosertib] + Cc1cc(Nc2cc(N3CCN(C)CC3)nc(Sc3ccc(NC(=O)C4CC4)cc3)n2)n[nH]1 [Tozasertib] (partner 0.1 µM)
Assay: as above
Settings: first compound 0.01 µM
Outline: as §1

Cell Line | relative viability
201T | 0.91
A-427 | 0.175
ABC-1 | 0.208
BEN | 0.598
CAL-12T | 0.394
COR-L23 | 0.24
COR-L 105 | 0.353
ChaGo-K-1 | 0.228
EKVX | 0.424
EPLC-272H | 0.281
H3255 | 0.63
HARA | 0.125
HCC-15 | 0.385
HCC-44 | 1.02
HCC-78 | 0.589
HCC-366 | 0.137
HCC-827 | 0.402
HOP-62 | 0.356
LC-2-ad | 0.478

Cell Line | relative viability
LCLC-97TM1 | 0.22
LCLC-103H | 0.5
LK-2 | 0.172
LOU-NH91 | 0.694
LU99A | 0.284
NCI-H520 | 0.406
NCI-H522 | 0.522
NCI-H661 | 0.353
NCI-H1623 | 0.4
NCI-H1648 | 0.545
NCI-H1650 | 0.415
NCI-H2009 | 0.787
NCI-H2023 | 0.453
NCI-H2228 | 0.276
NCI-H2342 | 0.548
SK-LU-1 | 0.371
SK-MES-1 | 0.898
SW 1573 | 0.221
UMC-11 | 0.19

Same assay, conditions: first compound 0.03162 µM

Cell Line | relative viability
201T | 0.999
A-427 | 0.186
ABC-1 | 0.161
BEN | 0.474
CAL-12T | 0.351
COR-L23 | 0.236
COR-L 105 | 0.374
ChaGo-K-1 | 0.243
EKVX | 0.451
EPLC-272H | 0.315
H3255 | 0.721
HARA | 0.128
HCC-15 | 0.409
HCC-44 | 0.951
HCC-78 | 0.348
HCC-366 | 0.132
HCC-827 | 0.415
HOP-62 | 0.409
LC-2-ad | 0.419
LCLC-97TM1 | 0.245

Cell Line | relative viability
LCLC-103H | 0.501
LK-2 | 0.2
LOU-NH91 | 0.69
LU99A | 0.273
NCI-H520 | 0.437
NCI-H522 | 0.58
NCI-H661 | 0.36
NCI-H1623 | 0.447
NCI-H1648 | 0.613
NCI-H1650 | 0.464
NCI-H2009 | 0.749
NCI-H2023 | 0.391
NCI-H2228 | 0.277
NCI-H2342 | 0.507
SK-LU-1 | 0.321
SK-MES-1 | 0.929
SW 900 | 0.533
SW 1573 | 0.234
UMC-11 | 0.201

Same assay, conditions: first compound 0.1 µM

Cell Line | relative viability
201T | 1.01
A-427 | 0.219
ABC-1 | 0.166
BEN | 0.494
CAL-12T | 0.321
COR-L23 | 0.23
COR-L 105 | 0.385
ChaGo-K-1 | 0.229
EKVX | 0.436
EPLC-272H | 0.197
H3255 | 0.421
HARA | 0.111
HCC-15 | 0.481
HCC-44 | 1.24
HCC-78 | 0.351
HCC-366 | 0.145
HCC-827 | 0.46
HOP-62 | 0.414
LC-2-ad | 0.445
LCLC-97TM1 | 0.195

Cell Line | relative viability
LCLC-103H | 0.572
LK-2 | 0.171
LOU-NH91 | 0.735
LU99A | 0.263
NCI-H520 | 0.347
NCI-H522 | 0.508
NCI-H661 | 0.339
NCI-H1623 | 0.351
NCI-H1648 | 0.386
NCI-H1650 | 0.563
NCI-H2009 | 1.05
NCI-H2023 | 0.414
NCI-H2228 | 0.249
NCI-H2342 | 0.55
SK-LU-1 | 0.302
SK-MES-1 | 0.92
SW 900 | 0.62
SW 1573 | 0.192
UMC-11 | 0.196

Same assay, conditions: first compound 0.3162 µM

Cell Line | relative viability
201T | 0.979
A-427 | 0.164
ABC-1 | 0.145
BEN | 0.629
CAL-12T | 0.18
COR-L23 | 0.162
COR-L 105 | 0.319
ChaGo-K-1 | 0.228
EKVX | 0.469
EPLC-272H | 0.277
H3255 | 0.559
HARA | 0.0667
HCC-15 | 0.444
HCC-44 | 1.15
HCC-78 | 0.464
HCC-366 | 0.169
HCC-827 | 0.437
HOP-62 | 0.329
LC-2-ad | 0.442
LCLC-97TM1 | 0.383

Cell Line | relative viability
LCLC-103H | 0.451
LK-2 | 0.19
LOU-NH91 | 0.62
LU99A | 0.273
NCI-H520 | 0.411
NCI-H522 | 0.581
NCI-H661 | 0.349
NCI-H1623 | 0.447
NCI-H1648 | 0.545
NCI-H1650 | 0.299
NCI-H2009 | 0.749
NCI-H2023 | 0.266
NCI-H2228 | 0.204
NCI-H2342 | 0.525
SK-LU-1 | 0.174
SK-MES-1 | 0.285
SW 900 | 0.538
SW 1573 | 0.17
UMC-11 | 0.181

Compound: C=CCn1c(=O)c2cnc(Nc3ccc(N4CCN(C)CC4)cc3)nc2n1-c1cccc(C(C)(C)O)n1 [Adavosertib] + NC(=O)Nc1cc(-c2cccc(F)c2)sc1C(=O)N[C@H]1CCCNC1 [AZD7762] (partner 0.2 µM)
Assay: as above
Settings: first compound 0.01 µM
Outline: as §1

Cell Line | relative viability
201T | 0.615
A-427 | 0.692
ABC-1 | 0.87
BEN | 0.571
CAL-12T | 0.569
ChaGo-K-1 | 0.918
EKVX | 0.595
EPLC-272H | 0.161
H3255 | 0.824
HARA | 0.296
HCC-15 | 1.1
HCC-44 | 0.989
HCC-78 | 0.512
HCC-366 | 0.292
HCC-827 | 0.196
HOP-62 | 0.697
LC-2-ad | 0.792
LCLC-97TM1 | 0.289
LCLC-103H | 0.786
LK-2 | 0.29
LOU-NH91 | 0.776
LU99A | 0.295
NCI-H522 | 0.654
NCI-H1648 | 0.549
NCI-H1703 | 0.105
NCI-H1792 | 0.683
NCI-H2342 | 0.524
SW 900 | 0.559

Same assay, conditions: first compound 0.03162 µM

Cell Line | relative viability
201T | 0.537
A-427 | 0.4
ABC-1 | 0.706
BEN | 0.622
CAL-12T | 0.41
ChaGo-K-1 | 0.836
EKVX | 0.731
EPLC-272H | 0.151
H3255 | 0.854
HARA | 0.192
HCC-15 | 1.28
HCC-44 | 0.971
HCC-78 | 0.603
HCC-366 | 0.21
HCC-827 | 0.166
HOP-62 | 0.382
LC-2-ad | 0.846
LCLC-97TM1 | 0.264
LCLC-103H | 0.783
LK-2 | 0.374
LOU-NH91 | 0.723
LU99A | 0.196
NCI-H522 | 0.733
NCI-H1648 | 0.532
NCI-H1703 | 0.13
NCI-H1792 | 0.652
NCI-H2342 | 0.508
SW 900 | 0.422

Same assay, conditions: first compound 0.1 µM

Cell Line | relative viability
201T | 0.471
A-427 | 0.327
ABC-1 | 0.623
BEN | 0.632
CAL-12T | 0.427
ChaGo-K-1 | 0.732
EKVX | 0.635
EPLC-272H | 0.127
H3255 | 0.721
HARA | 0.155
HCC-15 | 1.57
HCC-44 | 1.02
HCC-78 | 0.564
HCC-366 | 0.184
HCC-827 | 0.179
HOP-62 | 0.364
LC-2-ad | 0.817
LCLC-97TM1 | 0.138
LCLC-103H | 0.775
LK-2 | 0.236
LOU-NH91 | 0.645
LU99A | 0.184
NCI-H522 | 0.782
NCI-H1648 | 0.533
NCI-H1703 | 0.122
NCI-H1792 | 0.452
NCI-H2342 | 0.48
SW 900 | 0.281

Same assay, conditions: first compound 0.3162 µM

Cell Line | relative viability
201T | 0.267
A-427 | 0.231
ABC-1 | 0.802
BEN | 0.451
CAL-12T | 0.232
ChaGo-K-1 | 0.29
EKVX | 0.799
EPLC-272H | 0.135
H3255 | 0.559
HARA | 0.129
HCC-15 | 1.14
HCC-44 | 0.902
HCC-78 | 0.368
HCC-366 | 0.0419
HCC-827 | 0.15
HOP-62 | 0.116
LC-2-ad | 0.62
LCLC-97TM1 | 0.0845
LCLC-103H | 0.408
LK-2 | 0.168
LOU-NH91 | 0.531
LU99A | 0.122
NCI-H522 | 0.882
NCI-H1648 | 0.414
NCI-H1703 | 0.118
NCI-H1792 | 0.135
NCI-H2342 | 0.43
SW 900 | 0.175
